Consider three compounds from ChEMBL document CHEMBL5154787 (J Med Chem, 2022).

The nature of data set [1]: Solubility of compound at pH 4 measured after 24 hrs. Type of data set: physicochemical. The settings on record: buffer.
The nature of data set [2]: Solubility of compound at pH 5 measured after 24 hrs. Type of data set: physicochemical. The settings on record: buffer.
Data set [3] is described as follows: Solubility of compound at pH 6.5 measured after 24 hrs. The following applies: buffer. The data set is classed as physicochemical.
Data set [4] can be described thus: Inhibition of TAK/TAB (unknown origin).
A short description of data set [5]: Protein binding in cynomolgus monkey plasma assessed as unbound fraction measured after 3 hrs by LC/MS/MS analysis. The data set is classed as ADME, cell-free, Macaca fascicularis.
Data set [6] has as its target TRAF2 and NCK-interacting protein kinase (Homo sapiens, UniProt Q9UKE5). The data set is described as follows: Inhibition of TNIK (unknown origin).
A short description of data set [7]: Protein binding in dog plasma assessed as unbound fraction measured after 3 hrs by LC/MS/MS analysis. Type of data set: ADME, cell-free, Canis lupus familiaris.
A short description of data set [8]: Plasma concentration in CCI induced thermal hyperalgesia in Sprague-Dawley rat at 1 mg/kg, po measured at 5.5 hrs post dose. Type of data set: ADME, organism-based.
The subject of the next data set is Rattus norvegicus. The data set is described as follows: Analgesic activity in CCI induced thermal hyperalgesia in Sprague-Dawley rat assessed as reduction in thermal hyperalgesia by measuring inhibition of pain response at 3 mg/kg, po measured after 5.5 hrs by Hargreaves test relative to control. Type of data set: functional. The arrangement: scale not given: the % may be the effect or the level left.

A short description of data set [9]: Ratio of drug concentration in spinal cord to plasma in CCI induced thermal hyperalgesia in Sprague-Dawley rat at 3 mg/kg, po measured at 5.5 hrs post dose. Type of data set: ADME, organism-based.

pIC50: −log10 of the molar value.

Sequence of TRAF2 and NCK-interacting protein kinase (Q9UKE5 whole entry): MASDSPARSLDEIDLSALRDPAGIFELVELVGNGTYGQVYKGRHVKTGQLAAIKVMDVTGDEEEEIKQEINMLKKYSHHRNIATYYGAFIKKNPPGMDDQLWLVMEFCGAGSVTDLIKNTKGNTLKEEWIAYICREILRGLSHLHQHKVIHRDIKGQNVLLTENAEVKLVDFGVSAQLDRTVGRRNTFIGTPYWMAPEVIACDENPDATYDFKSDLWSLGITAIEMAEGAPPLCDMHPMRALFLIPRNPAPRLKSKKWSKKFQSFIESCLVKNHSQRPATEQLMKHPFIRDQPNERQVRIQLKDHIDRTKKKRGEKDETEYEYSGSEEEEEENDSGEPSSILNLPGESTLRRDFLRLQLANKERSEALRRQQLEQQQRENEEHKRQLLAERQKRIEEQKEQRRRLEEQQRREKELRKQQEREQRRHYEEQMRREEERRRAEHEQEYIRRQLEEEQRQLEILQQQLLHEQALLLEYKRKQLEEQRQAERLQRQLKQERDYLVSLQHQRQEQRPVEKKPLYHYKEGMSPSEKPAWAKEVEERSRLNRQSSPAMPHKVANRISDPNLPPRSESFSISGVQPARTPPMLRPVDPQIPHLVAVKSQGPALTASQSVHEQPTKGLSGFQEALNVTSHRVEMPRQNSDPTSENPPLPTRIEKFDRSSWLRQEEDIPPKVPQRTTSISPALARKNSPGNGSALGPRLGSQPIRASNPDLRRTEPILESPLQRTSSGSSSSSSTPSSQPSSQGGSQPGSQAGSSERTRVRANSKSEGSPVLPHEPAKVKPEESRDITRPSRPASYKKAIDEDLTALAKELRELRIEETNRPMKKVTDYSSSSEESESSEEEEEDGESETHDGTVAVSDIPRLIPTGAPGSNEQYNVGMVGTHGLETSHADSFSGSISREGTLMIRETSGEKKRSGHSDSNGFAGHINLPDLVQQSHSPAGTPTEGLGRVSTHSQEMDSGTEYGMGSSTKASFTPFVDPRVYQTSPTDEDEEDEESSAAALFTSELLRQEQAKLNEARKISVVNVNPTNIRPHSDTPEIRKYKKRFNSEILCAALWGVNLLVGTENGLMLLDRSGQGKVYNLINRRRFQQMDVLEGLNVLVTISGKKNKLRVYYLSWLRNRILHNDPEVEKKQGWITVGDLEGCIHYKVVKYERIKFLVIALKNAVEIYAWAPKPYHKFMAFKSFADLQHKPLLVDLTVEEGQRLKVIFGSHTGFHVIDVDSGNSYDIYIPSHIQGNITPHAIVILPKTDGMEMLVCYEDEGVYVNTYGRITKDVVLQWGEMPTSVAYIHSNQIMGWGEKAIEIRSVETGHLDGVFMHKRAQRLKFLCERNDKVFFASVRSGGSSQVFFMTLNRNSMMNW

One may read the solubility as how much of the substance goes into solution per volume. Take `COC(=O)Nc1cc(-c2ccc(OC[C@@](C)(N)CC(C)C)c(C)n2)ccn1`: the solubility at 24 h in data set [1], in data set [2] and in [3] was over 1000 µg/mL throughout.
Usually pIC50 stands for −log10 of the IC50, conventionally taken in molar units. `COC(=O)Nc1cc(-c2cnc(OC[C@@](C)(N)CC(C)C)c(C)c2)ccn1` showed a pIC50 in data set [4] of 6.74.
By fraction unbound is commonly meant the share of the substance not bound to proteins or other matrix. One may read the Kp as the ratio of the level in a tissue or fluid to that in plasma or blood. On to `CC(C)C[C@](C)(N)COc1cnc(-c2ccnc(C(F)F)c2)cc1C(F)F`, for which the fraction unbound at 3 h in data set [5] came out at 0.075; in [7], 0.08. Moreover, the pIC50 in data set [6] is 5.70. In data set [8], the concentration at 5.5 h was found to be 12 nM. The Activity in the data set with Rattus norvegicus was 100%. Further, in data set [9], the partition ratio (Kp) at 5.5 h is 13.
